Laboratory results as given in US11390604B2 (Hoffmann-La Roche Inc., priority 2019, dated 2022).
Structures can show the parent of a compound that is named as a salt.

Each molecule was assayed on Acinetobacter baumannii ATCC 17961 (assay: Antimicrobial susceptibility testing: 90% growth inhibitory concentration (IC90) determination). Details: ATCC17961, Acinetobacter baumannii ATCC 17961, Iso-Sensitest broth, read-out: ATCC 17961 IC90.
Type: cell-based
Method in brief: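 Growth was followed kinetically by OD600 at 20-min intervals for 16 h at 35±2 °C, with ~5×10^5 CFU/ml in Iso-Sensitest broth. Compounds were tested as twofold dilutions (e.g. 50–0.097 μM final). The concentration giving 90% inhibition of log-phase growth was reported.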

| Compound | IC90 [nM] |
| --- | --- |
| C#CCn1cc(-c2cnc(C(=O)Nc3ccc(C(=O)N4CCN(C(=O)N5CC(C)(N)C5)CC4)c(Cl)c3)n2C)c(C(F)(F)F)n1 [Example 81, N-[4-[4-(3-amino-3-methylazetidine-1-carbonyl)piperazine-1-carbonyl]-3-chlorophenyl]-1-methyl-5-[1-prop-2-ynyl-3-(trifluoromethyl)pyrazol-4-yl]imidazole-2-carboxamide] | 227 |
| C#CCn1cc(-c2cnc(C(=O)Nc3ccc(C(=O)N4CCN(C(=O)N[C@H]5CCC[C@H]5N)CC4)c(Cl)c3)n2C)c(C(F)(F)F)n1 [Example 82, N-[(1S,2R)-2-aminocyclopentyl]-4-[2-chloro-4-[[1-methyl-5-[1-prop-2-ynyl-3-(trifluoromethyl)pyrazol-4-yl]imidazole-2-carbonyl]amino]benzoyl]piperazine-1-carboxamide] | 160 |
| C#CCn1cc(-c2cnc(C(=O)Nc3ccc(C(=O)N4CCN(C(=O)N[C@H]5CC[C@H](N)C5)CC4)c(Cl)c3)n2C)c(C(F)(F)F)n1 [Example 83, N-[(1S,3S)-3-aminocyclopentyl]-4-[2-chloro-4-[[1-methyl-5-[1-prop-2-ynyl-3-(trifluoromethyl)pyrazol-4-yl]imidazole-2-carbonyl]amino]benzoyl]piperazine-1-carboxamide] | 288 |
| C#CCn1cc(-c2cnc(C(=O)Nc3ccc(C(=O)N4CCN(C(=O)N5CCC(N)CC5)CC4)c(Cl)c3)n2C)c(C(F)(F)F)n1 [Example 84, N-[4-[4-(4-aminopiperidine-1-carbonyl)piperazine-1-carbonyl]-3-chlorophenyl]-1-methyl-5-[1-prop-2-ynyl-3-(trifluoromethyl)pyrazol-4-yl]imidazole-2-carboxamide] | 191 |
| C#CCn1cc(-c2cnc(C(=O)Nc3ccc(C(=O)N4CCN(C(=O)N5CCC[C@H](N)C5)CC4)c(Cl)c3)n2C)c(C(F)(F)F)n1 [Example 85, N-[4-[4-[(3S)-3-aminopiperidine-1-carbonyl]piperazine-1-carbonyl]-3-chlorophenyl]-1-methyl-5-[1-prop-2-ynyl-3-(trifluoromethyl)pyrazol-4-yl]imidazole-2-carboxamide] | 170 |
| C#CCn1cc(-c2cnc(C(=O)Nc3ccc(C(=O)N4CCN(C(=O)N5CC6CNC6C5)CC4)c(Cl)c3)n2C)c(C(F)(F)F)n1 (stereo not shown) [Example 86, N-[3-chloro-4-[4-(3,6-diazabicyclo[3.2.0]heptane-3-carbonyl)piperazine-1-carbonyl]phenyl]-1-methyl-5-[1-prop-2-ynyl-3-(trifluoromethyl)pyrazol-4-yl]imidazole-2-carboxamide] | 203 |
| C#CCn1cc(-c2cnc(C(=O)Nc3ccc(C(=O)N4CCN(C(=O)N[C@H]5[C@@H]6CNC[C@@H]65)CC4)c(Cl)c3)n2C)c(C(F)(F)F)n1 [Example 87, 4-[2-chloro-4-[[1-methyl-5-[1-prop-2-ynyl-3-(trifluoromethyl)pyrazol-4-yl]imidazole-2-carbonyl]amino]benzoyl]-N-[rac-(1R,5S)-3-azabicyclo[3.1.0]hexan-6-yl]piperazine-1-carboxamide] | 216 |
| C#CCn1cc(-c2cnc(C(=O)Nc3ccc(C(=O)N4CCN(C(=O)N5C[C@@H]6C[C@H]5CN6)CC4)c(Cl)c3)n2C)c(C(F)(F)F)n1 [Example 88, N-[3-chloro-4-[4-[(1S,4S)-2,5-diazabicyclo[2.2.1]heptane-2-carbonyl]piperazine-1-carbonyl]phenyl]-1-methyl-5-[1-prop-2-ynyl-3-(trifluoromethyl)pyrazol-4-yl]imidazole-2-carboxamide] | 170 |
| C#CCn1cc(-c2cnc(C(=O)Nc3ccc(C(=O)N4CCN(C(=O)NC5CC6(CNC6)C5)CC4)c(Cl)c3)n2C)c(C(F)(F)F)n1 [Example 89, N-(2-azaspiro[3.3]heptan-6-yl)-4-[2-chloro-4-[[1-methyl-5-[1-prop-2-ynyl-3-(trifluoromethyl)pyrazol-4-yl]imidazole-2-carbonyl]amino]benzoyl]piperazine-1-carboxamide] | 235 |
| C#CCn1cc(-c2cnc(C(=O)Nc3ccc(C(=O)N4CCN(C(=O)N5C[C@@H]6CNC[C@H]6C5)CC4)c(Cl)c3)n2C)c(C(F)(F)F)n1 [Example 90, N-[4-[4-[(3aS,6aS)-2,3,3a,4,6,6a-hexahydro-1H-pyrrolo[3,4-c]pyrrole-5-carbonyl]piperazine-1-carbonyl]-3-chlorophenyl]-1-methyl-5-[1-prop-2-ynyl-3-(trifluoromethyl)pyrazol-4-yl]imidazole-2-carboxamide] | 218 |
| C#CCn1cc(-c2cnc(C(=O)Nc3ccc(C(=O)N4CCN(C(=O)N5CC6(CCN6)C5)CC4)c(Cl)c3)n2C)c(C(F)(F)F)n1 [Example 91, N-[3-chloro-4-[4-(1,6-diazaspiro[3.3]heptane-6-carbonyl)piperazine-1-carbonyl]phenyl]-1-methyl-5-[1-prop-2-ynyl-3-(trifluoromethyl)pyrazol-4-yl]imidazole-2-carboxamide] | 170 |
| C#CCn1cc(-c2cnc(C(=O)Nc3ccc(C(=O)N4CCN(C(=O)[C@H]5[C@@H]6CNC[C@@H]65)CC4)c(Cl)c3)n2C)c(C(F)(F)F)n1 [Example 92, N-[3-chloro-4-[4-[rac-(1R,5S)-3-azabicyclo[3.1.0]hexane-6-carbonyl]piperazine-1-carbonyl]phenyl]-1-methyl-5-[1-prop-2-ynyl-3-(trifluoromethyl)pyrazol-4-yl]imidazole-2-carboxamide;hydrochloride] | 103 |
| C#CCn1cc(-c2cnc(C(=O)Nc3ccc(C(=O)N[C@H]4C[C@@H](N)C4)c(Cl)c3)n2C)c(C(F)(F)F)n1 [Example 93, N-[4-[(3-aminocyclobutyl)carbamoyl]-3-chlorophenyl]-1-methyl-5-[1-prop-2-ynyl-3-(trifluoromethyl)pyrazol-4-yl]imidazole-2-carboxamide;hydrochloride] | 557 |
| Cn1c(-c2cn(CC#N)nc2C(F)(F)F)cnc1C(=O)Nc1ccc(C(=O)N[C@H]2C[C@@H](N)C2)c(Cl)c1 [Example 94, N-[4-[(3-aminocyclobutyl)carbamoyl]-3-chlorophenyl]-5-[1-(cyanomethyl)-3-(trifluoromethyl)pyrazol-4-yl]-1-methylimidazole-2-carboxamide;2,2,2-trifluoroacetic acid] | 176 |

The remaining lines, values ahead:

| IC90 [nM] | Compound |
| --- | --- |
| 422 | C[C@@H](N)C(=O)N[C@H]1C[C@@H](NC(=O)c2ccc(NC(=O)c3ncc(-c4cn(CC#N)nc4C(F)(F)F)n3C)cc2Cl)C1 [Example 95, N-[4-[[3-[[(2R)-2-aminopropanoyl]amino]cyclobutyl]carbamoyl]-3-chlorophenyl]-5-[1-(cyanomethyl)-3-(trifluoromethyl)pyrazol-4-yl]-1-methylimidazole-2-carboxamide;2,2,2-trifluoroacetic acid] |
| 498 | Cn1c(-c2cn(CC#N)nc2C(F)(F)F)cnc1C(=O)Nc1ccc(C(=O)N[C@H]2C[C@@H](NC(=O)[C@H]3CC[C@@H](N)C3)C2)c(Cl)c1 [Example 96, N-[4-[[3-[[(1S,3R)-3-aminocyclopentanecarbonyl]amino]cyclobutyl]carbamoyl]-3-chlorophenyl]-5-[1-(cyanomethyl)-3-(trifluoromethyl)pyrazol-4-yl]-1-methylimidazole-2-carboxamide;2,2,2-trifluoroacetic acid] |
| 595 | Cn1c(-c2cn(C3CC3)nc2C(F)(F)F)cnc1C(=O)Nc1ccc(C(=O)N[C@H]2C[C@@H](N)C2)c(Cl)c1 [Example 97, N-[4-[(3-aminocyclobutyl)carbamoyl]-3-chlorophenyl]-5-[1-cyclopropyl-3-(trifluoromethyl)pyrazol-4-yl]-1-methylimidazole-2-carboxamide] |
| 362 | Cn1c(-c2cn(CCC(F)(F)F)nc2C(F)(F)F)cnc1C(=O)Nc1ccc(C(=O)N2CCN(C(=O)C3CCNCC3)CC2)c(Cl)c1 [Example 98, N-[3-chloro-4-[4-(piperidine-4-carbonyl)piperazine-1-carbonyl]phenyl]-1-methyl-5-[3-(trifluoromethyl)-1-(3,3,3-trifluoropropyl)pyrazol-4-yl]imidazole-2-carboxamide;hydrochloride] |
| 403 | Cn1c(-c2cn(CF)nc2C(F)(F)F)cnc1C(=O)Nc1ccc(C(=O)N2CCN(C(=O)C3CCNCC3)CC2)c(Cl)c1 [Example 99, N-[3-chloro-4-[4-(piperidine-4-carbonyl)piperazine-1-carbonyl]phenyl]-5-[1-(fluoromethyl)-3-(trifluoromethyl)pyrazol-4-yl]-1-methylimidazole-2-carboxamide;hydrochloride] |
| 1030 | Cn1c(-c2cn(Cc3ccn[nH]3)nc2C(F)(F)F)cnc1C(=O)Nc1ccc(C(=O)N2CCN(C(=O)C3CCNCC3)CC2)c(Cl)c1 [Example 100, N-[3-chloro-4-[4-(piperidine-4-carbonyl)piperazine-1-carbonyl]phenyl]-1-methyl-5-[1-(1H-pyrazol-5-ylmethyl)-3-(trifluoromethyl)pyrazol-4-yl]imidazole-2-carboxamide] |
| 733 | Cn1c(-c2cn(CC(C)(CO)CCl)nc2C(F)(F)F)cnc1C(=O)Nc1ccc(C(=O)N2CCN(C(=O)C3CCNCC3)CC2)c(Cl)c1 (stereo not shown) [Example 101, 5-[1-[2-(chloromethyl)-3-hydroxy-2-methylpropyl]-3-(trifluoromethyl)pyrazol-4-yl]-N-[3-chloro-4-[4-(piperidine-4-carbonyl)piperazine-1-carbonyl]phenyl]-1-methylimidazole-2-carboxamide;formic acid] |
| 448 | CC(C)n1cc(-c2cnc(C(=O)Nc3ccc(C(=O)N4CCN(C(=O)C5CCNCC5)CC4)c(Cl)c3)n2C)c(C(F)(F)F)n1 [Example 102, N-[3-chloro-4-[4-(piperidine-4-carbonyl)piperazine-1-carbonyl]phenyl]-1-methyl-5-[1-propan-2-yl-3-(trifluoromethyl)pyrazol-4-yl]imidazole-2-carboxamide;hydrochloride] |
